Measured values taken from article PMC3056768, “Conjugation to the Cell-Penetrating Peptide TAT Potentiates the Photodynamic Effect of Carboxytetramethylrhodamine” (PLoS ONE, 2011).
Entries after “also recorded” stand apart in the source; their conditions may differ.

How the values were obtained:
HeLa cells [1] = experiment: Photocytotoxicity of endocytosed peptide after light irradiation (SYTOX Blue staining, membrane blebbing); format: cell-based
Method: (§1) HeLa (human cervical adenocarcinoma), COS-7 (SV40 transformed African green monkey kidney fibroblast-like cell line) were obtained from ATCC. COLO 316 (human ovarian carcinoma) were obtained from Robert Burghardt (Department of Veterinary Integrative Biosciences, Texas A&M University). Cells were cultured in DMEM supplemented with 10% fetal bovine serum (FBS) and maintained at 37°C in a humidified environment with 5% CO2. Cells were plated in 8-well dishes so that the cells were 70% confluent after 24 h, washed 3 times with L-15 media, incubated with 3 to 10 µM peptides at 37°C for 1 h, washed 3 times with L-15, and imaged. Alternatively, cells were incubated in L-15 at 4°C to inhibit the endocytic uptake of peptides. In this case, cells were imaged with the peptide still present in solution and the low temperature was maintained for the entire duration of imaging. For photosensitization, cells were exposed to light (λex = 560±20 nm) for the indicated time points. Plasma membrane disruption was detected by addition of the cell-impermeable DNA stain SYTOX Blue (5 µM) during or after photosensitization.
Ten to twenty images were acquired for each experiment.
Irradiances at the specimen were 100 mW/cm^2 when no neutral density filter and no objective were present in the light path (and, for instance 5 mW/cm^2 when ND4 was inserted). Irradiances were measured using a monochromic photometer (model 840-c, Newport, Irvine, CA). Irradiation area has a diameter of 1.3 cm without objective but the light beam is focused into an area of 3×10^−3 cm^2 by the 100× objective. Irradiances can therefore be approximated to be at […] with ND4 or ND1, respectively. Irradiances provided in the figure legends are based on these calculations. To confirm that the irradiances measured on the microscope were accurate, experiments were also reproduced, when possible, using light illumination with a collimated light source from Oriel (Stratford, CT) equipped with a 500 W Hg lamp. Selective irradiation at 560 nm was performed using an analytical line filter (Oriel, 9.4 nm bandwidth). In this case, irradiances of the light beam (diameter of 2.5 cm) could be measured more precisely using the monochromic photometer.

HeLa cells [2] = experiment: as above; format: cell-based; remark: listed apart in the source
HeLa cells [3] = experiment: Endocytic uptake (fluorescence of endocytic organelles); format: cell-based, human; conditions: 1 h at 37°C, washed, fluorescence imaging (TMR-TAT 3 µM; TMR-K9 higher concentration)
Method: as §1
Supplementary file pone.0017732.s003.tif: Figure S3 Comparison of the fluorescence intensity of endosomes containing TMR-TAT (incubation at 3 µM) or TMR-K9 (incubation at 10 µM) in the images presented in Figure 1. Imaging was performed in both cases under identical conditions. The fluorescence intensities of all endocytic organelles was measured the Slidebook software. […] (TIF) Click here for additional data file.

HeLa cells [4] = experiment: Toxicity in the absence of light (SYTOX green / DAPI); format: cell-based, human; conditions: concentrations up to 25 µM, 1 h in L-15 at 37°C, washed, additional 4 h, average of 3 experiments
Method: Supplementary file pone.0017732.s001.tif: Figure S1 Toxicity of TMR-TAT toward HeLa cells in the absence of light. TMR-TAT was incubated at the concentration indicated with cells for 1 hour in L-15 at 37°C. Cells were washed with fresh L-15 and incubated for an additional 4 h. Cells were then treated with L-15 containing DAPI and SYTOX® green. DAPI stains the nucleus of all cells while SYTOX® green only stains the nucleus of dead cells. Cells were imaged by fluorescence microscopy using the DAPI and FITC filters to detect DAPI and SYTOX® green, respectively. For each experiments, five representative images were acquired using the 20× objective and the percentage of dead cells were calculated from the ratio of cells stained by SYTOX® green divided by the number of cells stained by DAPI. The reported data is the average of 3 experiments (3×5 images, ≥1000 cells/experiments) and the error bar represents the standard deviation. (TIF) Click here for additional data file.

red blood cells (RBCs) = system: red blood cells (RBCs)
Method: Whole blood was purchased from Gulf Coast Regional Blood Center (Houston, TX). Erythrocytes were centrifuged for 5 min at 1500 g and the erythrocyte pellet was resuspended with PBS. This was repeated three times to remove plasma and buffy coat. The erythrocytes (50% volume in PBS) were diluted in PBS to a final concentration of 0.25%. Indicated concentration of peptide was added to the medium and the samples were added to the wells of an 8-well chamber glass slide (Nunc). Cells were typically allowed to settle to the bottom of the dish for 5 minutes prior to imaging so as to obtain a layer of cells in the focal plane.
Cells were placed on an inverted epifluorescence microscope (Model IX81, Olympus, Center Valley, PA) equipped with a heating stage maintained at 37°C. The microscope is configured with a spinning disk unit to perform both confocal and wide-field fluorescence microscopy. Images were collected using a Rolera-MGI Plus back-illuminated EMCCD camera (Qimaging, Surrey, BC, Canada). Images were acquired using bright field imaging and two standard fluorescence filter sets: Texas Red (Ex = 560±20 nm/Em = 630±35 nm), and CFP (Ex = 436±10 nm/Em = 480±20 nm). The excitation light was from a 100 W halogen lamp (Olympus USH 1030C) passed through the filter cubes and 40 or 100× objective lenses. Neutral density filters (ND 1, 2, 3, or 4 on the instrument, corresponding to 100, 25, 12.5, or 5% transmittance) and different exposure times were used to modulate the amount of light samples were exposed to. The bright field and fluorescence intensities of cells and ghosts were measured using the SlideBook 4.2 software (Olympus, Center Valley, PA). To determine the percentage of cells stained by SYTOX® Blue, cells were imaged with a 20× objective by phase contrast. Ten to twenty images were acquired for each experiment. The total number of cells in a given image was determined from the phase contrast image while the number of dead cells was determined by identifying cells containing a blue fluorescent nucleus stained by SYTOX® Blue. Cell viability was determined by establishing a ratio of dead cells/total number of cells for each sample (at least 1000 cells were counted in each experiments and each experiments were repeated 3 times).
TMR and TMR containing peptides were used at 2 µM. All experiments were performed by irradiating the samples at 560 nm for 400 msec (∼8 J/cm^2). The data in the histogram represents the average of 4 experiments and the error bars correspond to the standard deviation.

Q: Which “cell destruction, percentage of irradiated cells (SYTOX Blue staining)” value (HeLa cells [1]; endocytosed peptide, 2 sec irradiation at 560 nm, radiant exposure approx. 40 J/cm^2, at least 3000 cells, reproduced at least 3 times) does the source give for `CN(C)c1ccc2c(c1)Oc1cc(N(C)C)ccc1C21OC(=O)c2cc(C(=O)NCC(=O)N[C@@H](CCCNC(=N)N)C(=O)N[C@@H](CCCCN)C(=O)N[C@@H](CCCCN)C(=O)N[C@@H](CCCNC(=N)N)C(=O)N[C@@H](CCCNC(=N)N)C(=O)N[C@@H](CCC(N)=O)C(=O)N[C@@H](CCCNC(=N)N)C(=O)N[C@@H](CCCNC(=N)N)C(=O)N[C@@H](CCCNC(=N)N)C(=O)NCC(N)=O)ccc21` [TMR-TAT] here?
A: more than 95%

Q: And the “photocytotoxicity / cell death after irradiation at 560 nm” value (HeLa cells [1]; incubation 1 h 37°C (3 µM; TMR-K9 10 µM), washed, irradiated at 560±20 nm)?
A: rapid necrosis; also recorded: plasma membrane damage and cell death

Q: What about the “cell destruction after irradiation at 430 nm” value (HeLa cells [2]; HeLa incubated with TMR-TAT, 430 nm (not absorbed by TMR), radiant exposure approx. 40 J/cm^2) of the same compound?
A: not destroyed

Q: What about the “cell death on exposure to light of wavelengths not absorbed by TMR” value (HeLa cells [2]; HeLa, e.g. 436 or 470 nm) of the same compound?
A: no cell death

Q: And the “endocytic uptake by cells” value (HeLa cells [3])?
A: punctate intracellular distribution

Q: And the “cytotoxicity in the absence of light” value (HeLa cells [4])?
A: negligible

Q: What about the “lysis of RBCs when light exposure is increased” value (red blood cells (RBCs); 3 µM, 560 nm) of the same compound?
A: more than 90%

Q: What about the “lysis of RBCs in the absence of irradiation” value (red blood cells (RBCs); RBCs 0.25% in PBS, 1 to 5 µM, no 560 nm light) of the same compound?
A: No lysis

Q: And the “photohemolysis (lytic effect on RBCs upon light exposure)” value (red blood cells (RBCs); RBCs 0.25% in PBS, irradiation at 560 nm)?
A: started lysing immediately upon excitation with light

Q: What about the “photohemolysis after removal of oxygen” value (red blood cells (RBCs); incubation media degassed with nitrogen) of the same compound?
A: greatly reduced
